Target: GLP-1 Receptor (Homo sapiens, UniProt P43220)
Assay: Functional assay-cAMP synthesis (luciferase reporter, HEK293), GLP-1 receptor

Sequence of GLP-1 Receptor (P43220 24-463, species assumed): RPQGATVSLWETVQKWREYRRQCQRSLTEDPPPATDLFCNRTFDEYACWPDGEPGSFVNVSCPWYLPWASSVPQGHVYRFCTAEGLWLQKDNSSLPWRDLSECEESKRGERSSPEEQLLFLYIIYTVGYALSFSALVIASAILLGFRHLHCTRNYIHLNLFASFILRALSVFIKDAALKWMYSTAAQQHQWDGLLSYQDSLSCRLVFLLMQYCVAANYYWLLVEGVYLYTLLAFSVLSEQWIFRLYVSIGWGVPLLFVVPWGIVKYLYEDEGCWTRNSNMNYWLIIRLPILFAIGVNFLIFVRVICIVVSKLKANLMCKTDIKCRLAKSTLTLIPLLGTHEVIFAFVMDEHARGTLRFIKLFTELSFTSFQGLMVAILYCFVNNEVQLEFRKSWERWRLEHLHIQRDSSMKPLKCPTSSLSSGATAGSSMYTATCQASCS

Row | EC50 [nM] | SMILES
1 | 0.041 | CCCCCCCCCCCCCC(=O)NCCCC[C@H](NC(=O)[C@H](CC(=O)O)NC(=O)[C@H](CO)NC(=O)[C@@H](NC(=O)[C@H](Cc1ccccc1)NC(=O)[C@@H](NC(=O)CNC(=O)[C@H](CCC(N)=O)NC(=O)[C@@H](CO)NC(=O)[C@@H](N)Cc1c[nH]cn1)[C@@H](C)O)[C@@H](C)O)C(=O)N[C@@H](CO)C(=O)N[C@@H](CCCCN)C(=O)N[C@@H](Cc1ccc(O)cc1)C(=O)N[C@@H](CC(C)C)C(=O)N[C@@H](CC(=O)O)C(=O)N[C@@H](CCC(=O)O)C(=O)N[C@@H](CCCNC(=N)N)C(=O)N[C@@H](CCCNC(=N)N)C(=O)N[C@@H](C)C(=O)N[C@@H](CCCCN)C(=O)N[C@@H](CC(=O)O)C(=O)N[C@@H](Cc1ccccc1)C(=O)N[C@H](C(=O)N[C@@H](CCC(N)=O)C(=O)N[C@@H](Cc1c[nH]c2ccccc12)C(=O)N[C@@H](CC(C)C)C(=O)N[C@@H](CCSC)C(=O)N[C@@H](CC(N)=O)C(=O)N[C@H](C(N)=O)[C@@H](C)O)C(C)C [Peptide dS2K10(C14)E16K20-Gluc Amide, HXQGTFTSDKSKYLDERRAKDFVQWLMNT-amide]
2 | 0.041 | CCCCCCCCCCCCCCCC(=O)NCCCC[C@H](NC(=O)[C@H](CC(=O)O)NC(=O)[C@H](CO)NC(=O)[C@@H](NC(=O)[C@H](Cc1ccccc1)NC(=O)[C@@H](NC(=O)CNC(=O)[C@H](CCC(N)=O)NC(=O)[C@@H](CO)NC(=O)[C@@H](N)Cc1c[nH]cn1)[C@@H](C)O)[C@@H](C)O)C(=O)N[C@@H](CO)C(=O)N[C@@H](CCCCN)C(=O)N[C@@H](Cc1ccc(O)cc1)C(=O)N[C@@H](CC(C)C)C(=O)N[C@@H](CC(=O)O)C(=O)N[C@@H](CCC(=O)O)C(=O)N[C@@H](CCCNC(=N)N)C(=O)N[C@@H](CCCNC(=N)N)C(=O)N[C@@H](C)C(=O)N[C@@H](CCCCN)C(=O)N[C@@H](CC(=O)O)C(=O)N[C@@H](Cc1ccccc1)C(=O)N[C@H](C(=O)N[C@@H](CCC(N)=O)C(=O)N[C@@H](Cc1c[nH]c2ccccc12)C(=O)N[C@@H](CC(C)C)C(=O)N[C@@H](CCSC)C(=O)N[C@@H](CC(N)=O)C(=O)N[C@H](C(N)=O)[C@@H](C)O)C(C)C [Peptide dS2K10(C16)E16K20-Gluc Amide, HXQGTFTSDKSKYLDERRAKDFVQWLMNT-amide]
